pIC50: −log10 of the molar value. Values belong to the compound of their own block, whether it stands above or below them.
Tests used:
SHSY-5Y cells = assay: Etoposide Killing of SHSY-5Y; format: cell-based; details: etoposide 32 uM
Experimental: SHSY-5Y cells were grown in growth media. Cells are placed at 50,000 cells per 96 well. Four days latter the cells were treated with drug for 48 hours prior to etoposide (32 uM) treatment. On day 6 media was changed to that containing etoposide and drug for 4 hours, at which point the media was changed to media containing drug only. Cells are allowed to survive overnight and then assessed for viability with metabolic activity measured (WST-1-Beohringer Mannheime), as shown in TABLE 13.

CGNs [1] = assay: High/Low Potassium (HK/LK) assay in CGNs; format: cell-based
Experimental: Cultured CGNs which are maintained in a medium containing 26 mM potassium (high K^+ or HK) undergo cell death when the medium is changed to one containing 5 mM potassium (low K^+ or LK). HK maintains the cells in a highly polarized state, duplicating that of fully innervated neurons. The switch to LK (5 mM is more representative of physiological conditions) results in depolarization of the cells, mimicking the loss of neuronal conductivity. […] As these killer genes are turned on by various types of neuronal insult as observed in AD, PD, and stroke, HK/LK is a general in vitro model for neuronal degradation, blanketing a wide range of neurodegenerative diseases. Compounds that protect against HK/LK in CGNs would therefore be efficacious in treatment and/or prevention of various neurodegenerative disease states.
CGNs were harvested from day 8/9 post-natal CD1 mice, plated on Poly-D-Lycine coated plates and incubated for 6 days at 37° C., with […] potassium, under 5% CO2. Pretreated cells were treated with drug 24 hours prior to changing the media to one containing […] potassium and drug. Cells were assayed 16 hours after the final media change using cell TITER96 (Promega).

CGNs [2] = assay: Ceramide Killing of CGNs; format: cell-based, CD1 mice; details: ceramide 100 uM; 300 nM, (250 nM in source)
Description: Ceramide is a native […] found in most mammalian and human cells. The upregulation of endogenous ceramide has been linked to caspase 1 (ICE) induced apoptosis (Suzuki, A. et al. Exp. Cel. Res., 1997, 233, 41). In a similar fashion, the addition of ceramide to cultured CGNs results in caspase induced apoptosis, and is therefore considered an effective in vitro model for the various neurodegenerative diseases described above, which are characterized by caspase induced apoptosis, as observed in stroke models. Addition of selected compounds of the formula I through III, 24 hours prior to the addition of ceramide, to cultured CGNs provided protection against apoptosis, with 10 to 20% of the cells being saved at 1–10 μM drug concentrations (see Example 114).
CGNs were harvested from day 8/9 post-natal CD1 mice, plated on Poly-D-Lycine coated plates and incubated for 6 days at 37° C. under 5% CO2. Cells were pretreated with drug 24 hours prior to ceramide (100 uM) and drug addition.

CGNs [3] = assay: Glutamate Killing of CGNs; format: cell-based, CD1 mice; details: glutamate 100 uM; 300 nM, (250 nM in source)
Description: Glutaminergic neurons secrete the neurotransmitter glutamate as a part of normal cell signaling processes. Intracellular glutamate levels are regulated by glial cell uptake and conversion to glutamine. Under conditions of oxidative stress, as observed in various neurodegenerative diseases such as stroke, ALS, PD, and HD, glutaminergic neurons release massive amounts of glutamate into the […] fluid, overwhelming the surrounding cells. Stimulation of both NMDA and non NMDA-type glutamate excitory receptors leads to sustained depolarization of postsynaptic dendrosomal membranes, increased membrane permeability, and impaired ion homeostasis, all leading to either apoptotic or necrotic cell death.
CGNs were harvested from day 8/9 post-natal CD1 mice, plated on Poly-D-Lycine coated plates and incubated for 6 days at 37° C. under 5% CO2. Cells were pretreated with drug 24 hours prior to glutamate (100 uM) and drug addition.

HIAP1 mRNA in LAN5 cells = assay: LAN5 HAIP1 Down Regulators (RNA levels); format: cell-based; details: HIAP1 RNA level vs control = 1.0; 24 hours drug
Experimental: LAN5 cells were grown in growth media. Cells were plated at cells 50,000 per well in 96 cells per 96 wells. Five days latter drug was added and the cells were liced 24 hours latter using RLT buffer.

CGNs [4] = assay: Cisplatin Killing of CGNs; format: cell-based, CD1 mice; details: Mus musculus; assayed 48 hours after final drug treatment
Experimental: Cisplatin has been used extensively in the treatment of various cancers. One dosblimiting side effect of this chemotherapeutic agent is related to hearing loss as a result of its toxicity to auditory neurons and loss of feeling in the extremities. Cisplatin induces apoptosis to both cultured CGN and cortical neurons.
CGNs were harvested from day 8/9 post-natal CD1 mice, plated on Poly-D-Lycine coated plates and incubated for 6 days at 37° C. under 5% CO2. The cells were treated with media containing drug and cisplatin […].

SCG neurons = assay: NGF Withdrawal Killing of SCG Neurons; format: cell-based, Sprague-Dawley rats; details: Rattus norvegicus, Neuron, assayed 48 hours after drug
Description: Cultured Superiour Cervical Ganglion (SCG) neurons of the PNS which have been sustained in media containing Neuron Growth Factor (NGF) undergo apoptotic cell death upon removal of the NGF from the cellular medium. Loss of neuronal trofin support has been implicated in various neurodegenerative disease states in the PNS, such as diabetic neuropathy and neuropahies related to chemotherapeutic and anti-HIV drug treatment.
SCG neurons were harvested from day 1 post natal Sprague-Dawley rats, plated on collagen coated plates and incubated for 5 days in the presence of 50 ng/mL NGF at 37° C. under 5% CO2. The cells were washed with NGF free media, 4 times at 1 hour intervals, at which time drug was added.

[5] = system: DU145 prostate cancer cells; assay: Anticancer Effectiveness on Prostate Tumor Cells (Alamar Blue); format: cell-based, Human; details: for % Survival: 7 days
Experimental: Prostate cancer is often resistant to traditional chemotherapies. DU145 is representative prostated cancer cell line. DU145cells were cultured in the presence of various concentrations of compound 136.
Human prostate DUI45 cells were cultured in 96 well dishes. Cells were treated with various concentrations of test compounds for 7 days. Media was then removed and replaced with fresh media containing Alamar Blue. The cells were incubated for a further 4 hours and Alamar blue and conversion was assessed by fluorescence. Compound effectiveness was determined by assessing the reduction in Alamar blue bioconversion following 7 day treatment.

SMILES: COC(=O)[C@@]1(O)C[C@H]2O[C@]1(C)n1c3ccccc3c3c4c(c5c6ccccc6n2c5c31)C(=O)NC4 [Compound K252a, K252a, reference compound]
% SHSY-5Y cell survival (SHSY-5Y cells; drug 1 μM): 13.9%
toxicity (CGNs [1]; higher doses): toxic at higher doses
% CGN Survival (CGNs [2]): 0 (250 nM) %
% CGN Survival (CGNs [3]): 4.3 (250 nM) %
Fold Induction (HIAP1 mRNA in LAN5 cells): 0.51

SMILES: COc1ccc2[nH]c3c(c4c(n5c6ccccc6cc35)C(=O)NC4=O)c2c1 [Compound 47]
pIC50 (CGNs [4]): 5.00
inhibition of HK/LK cell death / protection of CGN neurons (CGNs [1]; 10 μM drug): (100% inhibition at 10 (μM)
pIC50 (CGNs [1]; Mus musculus, HK/LK switch, drug 24 h pre-treatment, assayed 16 h after media change, concentration at which cell death was inhibited by 50%): 5.52
pIC50 (SCG neurons): 5.00

melting point: 212 to 213 °C
SMILES: O=C1NC(=O)C(n2ccc3ccccc32)=C1c1c[nH]c2ccccc12 [Compound 1, 3-(indol-1-yl)-4-(1H-indol-3-yl)-1H-pyrrole-2,5-dione]
% SHSY-5Y cell survival (SHSY-5Y cells; drug 1 μM): 0%
% SHSY-5Y cell survival (SHSY-5Y cells; drug 10 μM): 12.5%
pIC50 (CGNs [4]): 5.00
pIC50 (SCG neurons): 4.70

melting point: 141 to 144 °C
SMILES: O=C1NC(=O)C(n2ccc3ccccc32)=C1c1c[nH]c2ccc(C#Cc3ccccc3)cc12 [Compound 15, 3-(Indol-1-yl)-4-(5-(β-phenylethynyl)-indol-3-yl)-pyrrole-2,5dione]

SMILES: COC(=O)C(C)(C)Cc1c(C2=CC(=O)NC2=O)c2cc(OCc3ccc4ccccc4n3)ccc2n1Cc1ccc(Cl)cc1 [Compound 109]
pIC50 (SCG neurons): 5.00

SMILES: CN(C)CCCn1cc(C2=C(n3ccc4ccccc43)C(=O)NC2=O)c2cc(OCc3ccccc3)ccc21 [Compound 136]
cells killed ([5]; 10 μM, after 7 days): 100%
% Survival ([5]; 0.312 um): 102.71%
% Survival ([5]; 0.625 um): 97.00%
% Survival ([5]; 1.25 um): 99.61%
% Survival ([5]; 2.5 um): 81.81%
% Survival ([5]; 5 um): 66.75%
% Survival ([5]; 10 um): −1.64%
% Survival ([5]; 20 um): −1.00%
% Survival ([5]; 40 um): 1.17%

melting point: 287 to 288 °C
Fold Induction (HIAP1 mRNA in LAN5 cells): 0.55
SMILES: CN(C)C(=O)n1cc(C2=CC(=O)NC2=O)c2cc(Br)ccc21 [Compound 58, 3-(N-(N,N-dimethylcarbamoyl)-5-bromoindol-3-yl)-1H-pyrrole-2,5-dione]

melting point: 217 to 220 °C
SMILES: O=C1NC(=O)C(n2ccc3ccccc32)=C1c1c[nH]c2ccc(OCc3ccccc3)cc12 [Compound 5, 3-(5-Benzyloxy-1H-indol-3-yl)-4-(indol-1-yl)-pyrrole-2,5-dione]
pIC50 (CGNs [4]): 5.00

melting point: 114 to 116 °C
SMILES: O=C1NC(=O)C(n2ccc3cc(OCc4ccccc4)ccc32)=C1c1c[nH]c2ccccc12 [Compound 12, 3-(5-benzyloxyindol-1-yl)-4-(1H-indol-3-yl)-1H-pyrrole-2,5-dione]

SMILES: Cc1ccc(S(=O)(=O)n2cc(C3=CC(=O)NC3=O)c3cc(O)ccc32)cc1 [Compound 91, 3-(N-tosyl-5-hydroxyindol-3-yl)-1H-pyrrole-2,5-dione]
pIC50 (SCG neurons): 4.70

SMILES: O=C1C=C(c2cn(S(=O)(=O)c3cccs3)c3ccccc23)C(=O)N1 [Compound 97, 3-(N-(2-thiophenesulfonyl)indol-3-yl)-1H-pyrrole-2,5-dione]
pIC50 (SCG neurons): 5.00

SMILES: COc1ccc(C(=O)n2cc(C3=CC(=O)NC3=O)c3cc(OCc4ccccc4)ccc32)c(OC)c1 [Compound 67, 3-(N-(2,4-dimethoxybenzoyl)-5-benzyloxyindol-3-yl)-1H-pyrrole-2,5-dione]
pIC50 (SCG neurons): 5.00

melting point: 271 to 272.9 °C
Fold Induction (HIAP1 mRNA in LAN5 cells): 0.45
SMILES: CC(=O)n1cc(C2=CC(=O)NC2=O)c2cc(Br)ccc21 [Compound 57, 3-(N-acetyl-5-bromoindol-3-yl)-1H-pyrrole-2,5-dione]

Source: patent publication US7129250B2, “Neuroprotective and anti-proliferative compounds” (Aegera Therapeutics Inc., priority 2000, dated 2006)
